Results taken from ChEMBL document CHEMBL5584343, “Cerastecin Inhibition of the Lipooligosaccharide Transporter MsbA to Combat Acinetobacter baumannii: From Screening Impurity to In Vivo Efficacy” (J Med Chem, 2024).
pEC50: −log10 of the molar value. ≈ marks a conversion by molar mass, not a printed value. Calls of active or inactive are those of the source. The calls are words filed in the database; no cut-off is given here.

Key:
Acinetobacter baumannii [1] = experiment: Antibacterial activity against Acinetobacter baumannii ATCC19606 assessed as bacterial growth inhibition incubated for 18 to 20 hrs by microbroth dilution method; format: functional; conditions: time 18-20 hrs
[2] = (§1) Cytotoxicity against GFP fused human MT4 cells cultured under serum free condition for 24 hrs by CellTiter-Glo assay; format: toxicity, cell-based; conditions: GFP fused MT4 cells
[3] = Inhibition of wildtype Acinetobacter baumannii MsbA preincubated for 30 mins followed by ATP addition and measured after 1 hrs by Transcreener ADP2 F1 assay
Acinetobacter baumannii [4] = experiment: Antibacterial activity against Acinetobacter baumannii ATCC19606 incubated for 18 to 20 hrs in presence of 1% of human serum by microbroth dilution method; format: functional; conditions: time 18-20 hrs
Acinetobacter baumannii [5] = experiment: Antibacterial activity against Acinetobacter baumannii ATCC19606 incubated for 18 to 20 hrs in presence of 10% human serum by microbroth dilution method; format: functional; conditions: time 18-20 hrs
Acinetobacter baumannii [6] = experiment: Antibacterial activity against Acinetobacter baumannii ATCC 19606 assessed as bacterial growth inhibition incubated overnight by spectrophotometric analysis; format: functional
Acinetobacter baumannii [7] = experiment: Selectivity ratio of MIC95 for antibacterial activity against Acinetobacter baumannii ATCC19606 in the presence of 10% human serum to MIC95 for antibacterial activity against Acinetobacter baumannii ATCC19606; format: functional
Acinetobacter baumannii [8] = experiment: Antibacterial activity against Acinetobacter baumannii CLB21655 incubated for 18 to 20 hrs in presence of 10% mouse serum by microbroth dilution method; format: functional; conditions: time 18-20 hrs
Acinetobacter baumannii [9] = experiment: Antibacterial activity against Acinetobacter baumannii CLB21655 assessed as bacterial growth inhibition incubated for 18 to 20 hrs by microbroth dilution method; format: functional; conditions: time 18-20 hrs
Acinetobacter baumannii [10] = experiment: Antibacterial activity against Acinetobacter baumannii CLB21655 incubated for 18 to 20 hrs in presence of 50% mouse serum by microbroth dilution method; format: functional; conditions: time 18-20 hrs
Acinetobacter baumannii [11] = experiment: Antibacterial activity against Acinetobacter baumannii CLB21655 incubated for 18 to 20 hrs in presence of 50% human serum by microbroth dilution method; format: functional; conditions: time 18-20 hrs
[12] = AUC (0 to infinity) in male C57BL/6 mouse at 300 mg/kg, sc measured after 24 hrs by LC-MS/MS analysis; format: ADME, organism-based; conditions: in vivo
[13] = Cmax in male C57BL/6 mouse at 300 mg/kg, sc measured after 24 hrs by LC-MS/MS analysis; format: ADME, organism-based; conditions: in vivo
[14] = Lipophilicity, logD of compound at pH 7 by HPLC analysis; format: physicochemical; conditions: buffer
[15] = Plasma protein binding in C57BL/6 mouse assessed as free fraction at 1000 to 100000 ng/ml by equilibrium dialysis based LC-MS/MS analysis; format: ADME, cell-free; conditions: dose 1000-100000 ng/ml
[16] = Plasma protein binding in C57BL/6 mouse at 1000 to 100000 ng/ml by equilibrium dialysis based LC-MS/MS analysis; format: ADME, cell-free; conditions: dose 1000-100000 ng/ml, read-out: PPB (converted)
Acinetobacter baumannii [17] = experiment: Selectivity ratio of MIC95 for antibacterial activity against Acinetobacter baumannii ATCC19606 in the presence of 1% human serum to MIC95 for antibacterial activity against Acinetobacter baumannii ATCC19606; format: functional
Acinetobacter baumannii [18] = experiment: Antibacterial activity against Acinetobacter baumannii CLB21655 infected in female DBA mouse blood stream infection model assessed as reduction in bacterial burden in spleen at 200 mg/kg, sc pre-infected with bacteria for 0.5 hrs followed by once daily compound administration and measured after 8 hrs (reference value: 5.85 log10CFU/g); format: functional
Acinetobacter baumannii [19] = experiment: Antibacterial activity against wild type Acinetobacter baumannii; format: functional
Acinetobacter baumannii [20] = experiment: Antibacterial activity against Acinetobacter baumannii clinic isolates; format: functional
MT4 = experiment: as §1; format: toxicity, cell-based; conditions: mt4, 24 h, time 24 hrs
[21] = AUC (0 to infinity) in male C57BL/6 mouse at 300 mg/kg, sc administered once in a day and measured after 24 hrs by LC-MS/MS analysis; format: ADME, organism-based; conditions: male, C57BL/6, mouse, in vivo
[22] = AUC (0 to infinity) in male C57BL/6 mouse at 300 mg/kg, sc administered 3 times a day with 3 hrs interval and measured after 24 hrs by LC-MS/MS analysis; format: ADME, organism-based; conditions: male, C57BL/6, mouse, in vivo
[23] = Cmax in male C57BL/6 mouse at 300 mg/kg, sc administered once in a day and measured after 24 hrs by LC-MS/MS analysis; format: ADME, organism-based; conditions: in vivo
[24] = Cmax in male C57BL/6 mouse at 300 mg/kg, sc administered 3 times a day with 3 hrs interval and measured after 24 hrs by LC-MS/MS analysis; format: ADME, organism-based; conditions: in vivo

Compound | MIC95 (Acinetobacter baumannii [1]) [µM] | EC50 at 24 h [2] [nM] | pEC50 [3] | MIC95 (Acinetobacter baumannii [4]) [µM] | MIC95 (Acinetobacter baumannii [5]) [µM] | Selectivity ratio (Acinetobacter baumannii [7]) | further results
O=C(O)c1cc(CN[C@H]2C[C@@H](CNc3ccc(NS(=O)(=O)c4cnn(-c5ccc(Cl)cc5)c4)c(C(=O)O)c3)C2)ccc1NS(=O)(=O)c1cnn(-c2ccc(Cl)cc2)c1 | 0.024 (≈ 0.0208 µg/mL) | 32700 | 5.62 | 0.098 |  |  | Activity (Acinetobacter baumannii [5]): inactive
CCCCc1ccc(S(=O)(=O)Nc2ccc(NC(=O)N3CCOCC3)cc2C(=O)O)cc1 |  |  |  |  |  |  | MIC (Acinetobacter baumannii [6]): ≤ 12.5 µM
O=C(O)c1cc(CN[C@H]2C[C@@H](NCc3ccc(NS(=O)(=O)c4cnn(-c5ccc(Cl)cc5)c4)c(C(=O)O)c3)C2)ccc1NS(=O)(=O)c1cnn(-c2ccc(Cl)cc2)c1 | 0.196 (≈ 0.17 µg/mL) | > 42000 | 5.89 |  | 3.12 | 16 | 
O=C(O)c1cc(CN2CC(Oc3ccc(NS(=O)(=O)N4CCOC(c5ccc(F)cc5)C4)c(C(=O)O)c3)C2)ccc1NS(=O)(=O)CCCCc1ccc(Cl)cc1 (single isomer, unassigned) |  |  |  |  |  |  | MIC (Acinetobacter baumannii [8]): 3.12 µM; MIC (Acinetobacter baumannii [9]): 0.049 µM (≈ 0.0407 µg/mL); MIC (Acinetobacter baumannii [10]): 50 µM; MIC (Acinetobacter baumannii [11]): 12.5 µM
O=C(O)c1cc(CN2CC(Oc3ccc(NS(=O)(=O)c4ccc(-c5ccc(F)cc5)s4)c(C(=O)O)c3)C2)ccc1NS(=O)(=O)c1cnn(-c2ccc(F)cc2)c1 | 0.024 (≈ 0.0197 µg/mL) | > 42000 | 8.14 |  | 6.25 | 260 | AUC [12]: 7970 µM·h; Cmax [13]: 502 µM; logD [14]: 1.8; Fu [15]: 0.6%
O=C(O)c1cc(CN2CC(Oc3ccc(NS(=O)(=O)c4ccc(-c5ccc(F)cc5)s4)c(C(=O)O)c3)C2)ccc1NS(=O)(=O)CCc1ccc(Cl)cc1 | 0.024 (≈ 0.0192 µg/mL) | 38700 | 8.24 |  | 3.12 | 130 | 
O=C(O)c1cc(CN2CC(Oc3ccc(NS(=O)(=O)N4CCOC(c5ccc(F)cc5)C4)c(C(=O)O)c3)C2)ccc1NS(=O)(=O)CCCc1ccc(F)cc1 (racemic) |  |  |  |  |  |  | MIC (Acinetobacter baumannii [8]): 6.25 µM; MIC (Acinetobacter baumannii [9]): 0.098 µM (≈ 0.0785 µg/mL); MIC (Acinetobacter baumannii [10]): > 100 µM; MIC (Acinetobacter baumannii [11]): 12.5 µM
O=C(O)c1cc(CN2CC(Oc3ccc(NS(=O)(=O)c4cnn(-c5ccc(F)cc5)c4)c(C(=O)O)c3)C2)ccc1NS(=O)(=O)CCCCCc1ccc(Cl)cc1 |  |  |  |  |  |  | MIC (Acinetobacter baumannii [8]): 3.12 µM; MIC (Acinetobacter baumannii [9]): 0.024 µM (≈ 0.0198 µg/mL); MIC (Acinetobacter baumannii [10]): 25 µM; MIC (Acinetobacter baumannii [11]): 25 µM
O=C(O)c1cc(CN2CC(Oc3ccc(NS(=O)(=O)c4ccc(-c5ccc(F)cc5)cc4)c(C(=O)O)c3)C2)ccc1NS(=O)(=O)c1cnn(-c2ccc(F)cc2)c1 | 0.049 (≈ 0.04 µg/mL) | > 42000 | 7.77 |  | 3.12 | 64 | 
CCCCc1ccc(S(=O)(=O)Nc2ccc(NC(=O)CCC(=O)Nc3ccc(NS(=O)(=O)c4ccc(CCCC)cc4)c(C(=O)O)c3)cc2C(=O)O)cc1 | 0.057 (≈ 0.0444 µg/mL) | > 42000 | 7.31 | 11.5 |  |  | fraction unbound [16]: < 0.001; Selectivity ratio (Acinetobacter baumannii [17]): 202; Activity (Acinetobacter baumannii [18]): 6.04 log10CFU/g; logD [14]: 2.1
O=C(O)c1cc(CNC2CN(Cc3ccc(NS(=O)(=O)c4cnn(-c5ccc(Cl)cc5)c4)c(C(=O)O)c3)C2)ccc1NS(=O)(=O)c1cnn(-c2ccc(Cl)cc2)c1 | 0.391 (≈ 0.333 µg/mL) | > 42000 | 6.05 |  | 3.12 | 8 | 
O=C(O)c1cc(CN2CC(COc3ccc(NS(=O)(=O)c4cnn(-c5ccc(Cl)cc5)c4)c(C(=O)O)c3)C2)ccc1NS(=O)(=O)c1cnn(-c2ccc(Cl)cc2)c1 | 0.196 (≈ 0.167 µg/mL) | > 42000 | 6.24 |  | 6.25 | 32 | 
O=C(CCCOc1ccc(NS(=O)(=O)c2ccc(-c3ccccc3)s2)c(C(=O)O)c1)Nc1ccc(NS(=O)(=O)c2ccc(-c3ccccc3)s2)c(C(=O)O)c1 | 0.012 (≈ 0.00982 µg/mL) | > 42000 | > 8.00 | 3.12 |  |  | Selectivity ratio (Acinetobacter baumannii [17]): 260
O=C(O)c1cc(CN2CC(Oc3ccc(NS(=O)(=O)c4cnn(-c5ccc(F)cc5)c4)c(C(=O)O)c3)C2)ccc1NS(=O)(=O)CCCCc1ccc(Cl)cc1 |  |  |  |  |  |  | MIC (Acinetobacter baumannii [8]): 3.12 µM; MIC (Acinetobacter baumannii [9]): 0.078 µM (≈ 0.0634 µg/mL); MIC (Acinetobacter baumannii [10]): 70.7 µM; MIC (Acinetobacter baumannii [11]): 29.7 µM
O=C(Nc1sc2c(c1C(=O)O)CCCC2)c1ccc(Cl)cc1 |  |  |  |  |  |  | MIC (Acinetobacter baumannii [19]): 60 µM (≈ 20.1 µg/mL)
CN1C(=O)[C@H](CCCCN)NC(=O)[C@H](CCCN)NCc2cccnc2Sc2cccc(-c3ccc(C(=O)O)cc3)c2CNC(=O)[C@@H]1Cc1c[nH]c2ccccc12 [ZOSURABALPIN] |  |  |  |  |  |  | MIC (Acinetobacter baumannii [19]): 0.3 µM (≈ 0.237 µg/mL); MIC (Acinetobacter baumannii [20]): 0.12 µg/mL (≈ 0.152 µM)
C[C@@H]1[C@H](Oc2ccc(NS(=O)(=O)c3cnn(-c4ccc(Cl)cc4)c3)c(C(=O)O)c2)CN1Cc1ccc(NS(=O)(=O)c2cnn(-c3ccc(Cl)cc3)c2)c(C(=O)O)c1 (racemic) | 0.049 (≈ 0.0418 µg/mL) | > 42000 | 7.09 |  | 6.25 | 128 | 
O=C(CCCOc1ccc(NS(=O)(=O)CCc2ccc(F)cc2)c(C(=O)O)c1)Nc1ccc(NS(=O)(=O)CCc2ccc(F)cc2)c(C(=O)O)c1 | 3.12 (≈ 2.33 µg/mL) |  | 5.94 | 25 |  |  | Activity (MT4): Non-Toxic; Selectivity ratio (Acinetobacter baumannii [17]): 8
CCCCc1ccc(S(=O)(=O)Nc2ccc(NC(=O)Nc3ccc(NS(=O)(=O)c4ccc(CCCC)cc4)c(C(=O)O)c3)cc2C(=O)O)cc1 | 2.21 (≈ 1.6 µg/mL) |  |  |  |  |  | logD [14]: 2.3
O=C(CCCOc1ccc(NS(=O)(=O)c2ccc(Oc3ccc(Cl)cc3)nc2)c(C(=O)O)c1)Nc1ccc(NS(=O)(=O)c2ccc(Oc3ccc(Cl)cc3)nc2)c(C(=O)O)c1 | 0.012 (≈ 0.0109 µg/mL) | 36300 | 7.54 | 3.12 |  |  | Selectivity ratio (Acinetobacter baumannii [17]): 260
O=C(CCCOc1ccc(NS(=O)(=O)c2ccc(-c3ccc(C(F)(F)F)cc3)cc2)c(C(=O)O)c1)Nc1ccc(NS(=O)(=O)c2ccc(-c3ccc(C(F)(F)F)cc3)cc2)c(C(=O)O)c1 | 0.391 (≈ 0.368 µg/mL) | 11200 | > 8.00 | 3.12 |  |  | Selectivity ratio (Acinetobacter baumannii [17]): 8; AUC(0-inf) [21]: 885 µM·h; AUC(0-inf) [22]: 3780 µM·h; Cmax [23]: 370 µM; Cmax [24]: 543 µM
O=C(CCCOc1ccc(NS(=O)(=O)c2cnn(-c3ccc(Cl)cc3)c2)c(C(=O)O)c1)Nc1ccc(NS(=O)(=O)c2cnn(-c3ccc(Cl)cc3)c2)c(C(=O)O)c1 | 0.062 (≈ 0.053 µg/mL) | 22900 | > 8.00 | 1.56 |  |  | Selectivity ratio (Acinetobacter baumannii [17]): 25
O=C(O)c1cc(CN2CC(Oc3ccc(NS(=O)(=O)c4ccc(-c5ccc(F)cc5)s4)c(C(=O)O)c3)C2)ccc1NS(=O)(=O)c1cnn(-c2ccc(Cl)cc2)c1 | 0.049 (≈ 0.0411 µg/mL) | 37000 | > 8.00 |  | 3.12 | 64 | 
O=C(CCCOc1ccc(NS(=O)(=O)c2ccc(-c3ccc(Cl)cc3)s2)c(C(=O)O)c1)Nc1ccc(NS(=O)(=O)c2ccc(-c3ccc(Cl)cc3)s2)c(C(=O)O)c1 | 0.012 (≈ 0.0106 µg/mL) | 3400 | > 8.00 | 2.21 |  |  | Selectivity ratio (Acinetobacter baumannii [17]): 184
